Assay results: patent publication US6699676B1, “Uses of ouabain and ouabain-like molecules in apoptosis related pathologies” (Corporation du Centre de Recherche du Centre, Hospitalier …, priority 1999, dated 2004)

What was measured:
VSMC-E1A = test: Chromatin cleavage assay in VSMC-E1A; assay type: cell-based, rat; conditions: VSMC-E1A; for Increment of chromatin fragments triggered by serum withdrawal(%): 1 mM, pretreated 2 hours then 3 hours with or without calf serum, control increment taken as 100%
Procedure: FIG. 2. Effect of ouabain on chromatin cleavage in VSMC-E1A. (A) Kinetics of the accumulation of chromatin fragments in control (curves 1, 3) and ouabain-treated (curves 2, 4) VSMC-E1A in the presence of 10% calf serum (CS, curves 1, 2) or in CS-free medium (curves 3, 4). Mean values ±S.E. obtained in experiments performed in quadruplicate are given. (B) Content of chromatin fragments in VSMC-E1A subjected to 6 hr of incubation in serum-supplied medium with or without 1 mM ouabain, 0.25 μM staurosporine, 1 μM okadaic acid and 350 mM mannitol. Mean values±S.E. obtained in 3 experiments performed in quadruplicate are given. ★, ★★ p<0.05 and 0.001 compared to ouabain-untreated cells. In both experiments, ouabain was added 1 hour before triggering of apoptosis.
Cells were incubated in K^+-containing medium consisting of 91 mM NaCl, 5 mM KCl, 0.9 mM NaH2PO4, 44 mM NaHCO3, 1.8 mM CaCl2, 0.8 mM MgCl2, 33 mM HEPES and 5 mM D-glucose (pH 7.4) (lines 1 and 2) or in K^+-depleted medium (equimolar substitution of KCl by NaCl, line 3) with or without 10% calf serum (CS) and 1 mM ouabain as indicated. In experiments with VSMC-MYC and VSMC-E1A, cells were preincubated for 1 hr with ouabain or with K^+-depleted medium in the presence of CS and then subjected to treatment with serum-free media. After 24 hours (VSMC) or 6 hours (VSMC-MYC and VSMC-E1A), the content of chromatin fragments was measured as described in Experimental Procedures. Mean values±S.E. obtained in 3 experiments performed in quadruplicate (VSMC) or triplicate (VSMC-MYC, VSMC-E1A) are given. ★, ★★ p<0.05 and 0.001 compared to the controls.
To estimate chromatin cleavage, cells were incubated for 1 hr in the presence of 10% calf serum (CS) in the control solution (DMEM, [Na^+]=137 mM; [K^+]=5 mM—line 1) or under equimolar substitution of NaCl by KCl ([Na^+]=14 mM; [K^+]=128 mM—line 2) with or without 1 mM ouabain and then for an additional 6 hours in the same media with or without CS. Intracellular Na^+ and K^+ content was measured as steady-state distribution of isotopes after 24 hours preincubation of cells in control Na^+-enriched solution containing 0.5 μCi/ml ^86Rb or 2 μCilml ^22Na, and additional 6 hours incubation in Na^+—(line 1) or K^+—(line 2) enriched medium, containing 10% CS and isotopes with the same specific activity with or without 1 mM ouabain. For more details see Experimental Procedures. Mean values±S.E. obtained in 3 experiments performed in triplicate (ion content) or quadruplicate (chromatin cleavage) are given. ★p<0.001 compared to ouabain-untreated cells.
VSMC-E1A cells were pretreated with compounds indicated in the left column during 2 hours in DMEM containing 10% calf serum and then additional 3 hours in the absence or presence of calf serum. The increment of the content of chromatin fragments triggered by serum withdrawal in control cells was taken as 100%. Means+S.E. from experiments performed with quadruplicate are given. ★p<0.001 as compared to control.
(§1) Cells. VSMC were obtained by explant methods from aortas of 10- to 13-week-old male rats as described previously (17), cultured in DMEM with 10% calf serum, 100 U/ml penicillin, 100 µg/ml streptomycin and used between 10 to 16 passages. Cells transfected with c-myc (VSMC-MYC) and E1A-adenovirus (VSMC-E1A) were obtained in accordance with a previously-described protocol (18,19) and were cultured in the same medium with the addition of 500 µg/ml genticin. Jurkat cells were obtained from the American Type Culture Collection and cultured in RPMI 1640 medium supplied with 10% calf serum, antibiotics, sodium pyruvate, glutamate and β-mercaptoethanol.
Chromatin cleavage assay. Chromatin cleavage in VSMC was estimated by a technique described previously in detail (10). Briefly, VSMC grown in 24-well dishes were labeled for 24 hours in serum-supplied DMEM with [^3H]-thymidine (1 μCi/ml), washed with 2×2 ml of DMEM and incubated in serum-supplied DMEM. […]

caspase-3 [1] = test: Caspase-3 activity in treated VSMC-E1A; assay type: cell-based, rat; conditions: 6 hours, staurosporine 0.25 μM, okadaic acid 1 μM
Procedure: (§2) FIG. 5. Effect of ouabain on caspase-3 activity in VSMC-E1A (A) and Jurkat cells (B). VSMC-E1A and Jurkat cells were pretreated with 1 mM ouabain for 1 and 2 hours, respectively, and the additions indicated below the bars were delivered in media with 10% calf serum and with the baseline (137/5) or inverse (14/128) [Na^+]o/[K^+]o ratio for 6 (VSMC-E1A) or 3 hours (Jurkat cells). In experiments with VSMC-E1A, calf serum (CS) was omitted where indicated (−). Abbreviations: staur.—staurosporine (0.25 μM), ok.ac.—okadaic acid (1 μM), mann.—mannitol (350 mM); Fas-L—Fas ligand (100 ng/ml). Mean values±S.E. obtained in experiments performed in quadruplicate (A) or triplicate (B) are given. ★p<0.001 compared to ouabain-untreated cells.
(§3) Caspase activity. VSMC-E1A seeded in 20 cm^2 flasks and treated as indicated in FIG. 5 were scratched, transferred to centrifuge tubes, washed twice with PBS and lysed in 0.5 ml of buffer A contaming 50 mM tris-HCl (pH 7.4), 5 mM MgCl2, 1 mM EGTA and 0.1% CHAPS. Then, 50-100 μl of cell lysate was mixed with 600 μl of buffer A containing 1 mM dithiothreitol, 40 μM YVAD-AMC or DEVD-AMC with or without 1 μM of caspase-1 and capspase-3 inhibitors (Ac-YVAD-CHO and Ac-DEVD-CHO, respectively), incubated for 2 hours at 37° C. and diluted 15-fold with 80 mM glycine-NaOH buffer (pH 10). Fluorescence of the samples was measured at ex=365 run and em=465 run and calibrated with AMC in the range of 10 to 100 nM. To measure caspase activity in control and ouabain-treated Jurkat cells, 5 ml of suspension containing ˜2×10^7 cells was transferred onto ice and sedimented. The pellet of cells was washed and treated with 0.3 ml of medium A in the same way as VSMC. Protein content was estimated by Bradford methods.

caspase-3 [2] = assay type: biochemical, rat; conditions: lysates of VSMC-E1A after 6 hours serum withdrawal, 100 mM added, data not shown
Procedure: (§4) To examine this hypothesis, we measured the activity of caspases in lysates of VSMC-E1A subjected to 6 hours serum withdrawal has been measured.
as §3

caspase-1 = molecular target: T1, caspase-1 (Rattus norvegicus, UniProt P43527); assay type: biochemical; conditions: lysates of VSMC-E1A after 6 hours serum withdrawal, 100 mM added, data not shown
T1 construct: we measured the activity of caspases in lysates of VSMC-E1A subjected to 6 hours serum withdrawal; endogenous in cells; host or cells: VSMC-E1A (rat aortic vascular smooth muscle cells transfected with E1A adenoviral protein), cell lysate
T1 sequence (P43527 119-402): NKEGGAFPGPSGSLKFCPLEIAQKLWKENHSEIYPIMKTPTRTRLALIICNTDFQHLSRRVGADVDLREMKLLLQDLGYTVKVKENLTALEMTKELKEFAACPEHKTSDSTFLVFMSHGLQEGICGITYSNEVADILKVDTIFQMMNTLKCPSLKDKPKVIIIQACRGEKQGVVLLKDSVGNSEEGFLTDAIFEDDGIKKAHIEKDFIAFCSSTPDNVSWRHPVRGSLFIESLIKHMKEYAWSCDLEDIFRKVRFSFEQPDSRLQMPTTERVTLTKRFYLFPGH
Procedure: as §4, §3

Jurkat cells = test: Chromatin cleavage assay in Jurkat cells; assay type: cell-based, human; conditions: for Chromatin fragments (%): Jurkat cells without ouabain, +Fas-L 100 ng/ml, 7 hours
Procedure: FIG. 4. Effect of ouabain on chromatin cleavage in Jurkat cells. (A) Kinetics of accumulation of chromatin fragments in control (curves 1, 3) and ouabain-treated (curves 2, 4) cells in the absence (curves 1, 2) or presence (curves 3, 4) of 100 ng/ml of anti-human Fas (mouse monoclonal IgM, Upstate Biotechnology, Lake Placid, N.Y.); (B) Content of chromatin fragments in Jurkat cells subjected to 3 hours of incubation with or without 1 mM ouabain, 0.25 μM staurosporine and 350 mM mannitol. In both experiments, ouabain was added 2 hours before triggering of apoptosis. Mean values±S.E. obtained in experiments performed in triplicate are given.
To estimate chromatin cleavage, cells were incubated for 2 hours in the presence of 10% calf serum in the control solution (DMEM, [Na^+]=137 mM; [K^+]=5 mM—line 1) or under equimolar substitution of NaCl with KCl ([Na^+]=14 mM; [K^+]=128 mM—line 2) with or without 1 mM ouabain and then for an additional 7 hours at the same media with or without 100 ng/ml Fas ligand (Fas-L). Intracellular Na^+ and K^+ content was measured as steady-state distribution of isotopes after 24 hours preincubation of cells in control Na^+-enriched solution containing 0.5 μCi/ml ^86Rb or 2 μCi/ml ^22Na, and an additional 6 hours incubation in Na^+—(line 1) or K^+—(line 2) enriched medium containing 10% calf serum, isotopes with the same specific activity with or without 1 mM ouabain. For more details see Experimental Procedures. Mean values±S.E. obtained in experiments performed in triplicate are given. ★, #p<0.01 and 0.001 compared to ouabain-untreated cells.
as §1
Chromatin cleavage assay. Chromatin cleavage in VSMC was estimated by a technique described previously in detail (10). Briefly, VSMC grown in 24-well dishes were labeled for 24 hours in serum-supplied DMEM with [^3H]-thymidine (1 μCi/ml), washed with 2×2 ml of DMEM and incubated in serum-supplied DMEM. In 48 hr, the cells were pretreated with ouabain or K^+-depleted medium as indicated in FIG. 2 and Table 3, washed twice with serum-containing medium and incubated with 0.5 ml of medium with or without ouabain and containing different inducers of apoptosis. To measure the content of chromatin fragments, the cells were transferred on ice and 1 ml of ice-cold lysed buffer (10 mM EDTA, 10 mM tris-HCl, 0.5% triton X100 (pH 8.0)) was added. After 15 min, the cell lysate was transferred to Ependorf tubes, sedimented (12,000 rpm, 10 mm), and 1 ml of supernatant was transferred for the measurement of radioactivity (A1t). The remaining radioactivity from pellets and wells was extracted with 0.5 ml of 1% SDS/4 mM EDTA mixture, combined and counted (A2). Chromatin cleavage was quantified as the content of chromatin fragments normalized by total content of [^3H]-labeled DNA in accordance with the equation [1.5×(A1t−A1o)/(A2+A1t−1.5A1o)]×100% where A1o is the value of A1t before induction of apoptosis. To measure chromatin fragmentation in [^3H]-thymidine-labeled Jurkat cells, they were resuspended at a density of 10^6 cells/ml in medium containing 10% calf serum and the additions indicated in FIG. 4 and Table 4. At the time intervals shown in FIG. 4, 100 μl of cell suspension was mixed with 100 μl of PBS contairung 0.5% triton X100, and the content of chromatin fragments was measured as described previously in detail (20).

caspase-3 [3] = test: Caspase-3 activity in treated Jurkat cells; assay type: cell-based, human; conditions: 3 hours, Fas ligand 100 ng/ml, staurosporine 0.25 μM, mannitol 350 mM
Procedure: as §2, §3

With C[C@H]1O[C@@H](O[C@H]2[C@@H](O)C[C@H](O[C@H]3[C@@H](O)C[C@H](O[C@H]4CC[C@@]5(C)[C@H](CC[C@@H]6[C@@H]5CC[C@]5(C)[C@@H](C7=CC(=O)OC7)CC[C@]65O)C4)O[C@@H]3C)O[C@@H]2C)C[C@H](O)[C@@H]1O [Digitoxin, 5β,20[22]-cardenolide-3β,14-diol-3[O-2,6-dideoxy-β-D-ribohexopyranosyl-(1->4)-2,3-dideoxy-β-D-ribohexo-pyranosyl]oxy] the “Increment of chromatin fragments triggered by serum withdrawal(%)” value (VSMC-E1A) was 24 ± 6 %.
C=C1[C@@H](O)[C@@H]2O[C@]3(CC[C@H](/C=C/[C@@H](C)[C@@H]4CC(C)=C[C@@]5(O[C@H](C[C@@](C)(O)C(=O)O)CC[C@H]5O)O4)O3)CC[C@H]2O[C@@H]1[C@@H](O)C[C@H](C)[C@H]1O[C@@]2(CCCCO2)CC[C@H]1C [okadaic acid] was tested, and the “content of chromatin fragments” value (VSMC-E1A; 6 hr, serum-supplied medium, 0.25 μM staurosporine, 1 μM okadaic acid) was 28.3±4.2% and the “increase of caspase-3 activity” value (caspase-3 [1]) was 10 fold.
With [Cl-].[K+] [KCl] the “decrease of caspase-3 activity” value (caspase-3 [2]) was 10-20% and the “decrease of caspase-1 activity” value (caspase-1) was 10-20%.
With [Cl-].[Na+] [NaCl] the “decrease of caspase-3 activity” value (caspase-3 [2]) was “the same level of inhibition” and the “decrease of caspase-1 activity” value (caspase-1) was “the same level of inhibition”.
In the case of C[N+](C)(C)CCO.[Cl-] [choline chloride], the “decrease of caspase-3 activity” value (caspase-3 [2]) was “the same level of inhibition” and the “decrease of caspase-1 activity” value (caspase-1) was “the same level of inhibition”.
With Fas ligand the “Chromatin fragments (%)” value (Jurkat cells; medium [Na+]o=14, [K+]o=128 mM) was 20.0±2.2%, the “Chromatin fragments (%)” value (Jurkat cells; medium [Na+]o=14, [K+]o=128 mM, listed as Fas-L) was 20.2% and the “Chromatin fragments (%)” value (Jurkat cells; medium [Na+]o=137, [K+]o=5 mM) was 28.5±3.3%. The “Chromatin fragments (%)” value (Jurkat cells; medium [Na+]o=137, [K+]o=5 mM, listed as Fas-L) was 28.5%, the “increase of the content of chromatin fragments” value (Jurkat cells; Jurkat cells, 1.5 hour incubation with Fas ligand 100 ng/ml) was 10 fold and the “increment of the content of chromatin fragments triggered by Fas ligand” value (Jurkat cells; control Jurkat cells, 7-hr incubation) was 23.6±3.9%. For the same molecule, the “increase of caspase-3 activity” value (caspase-3 [3]) was ~30 fold.
For C[C@H]1O[C@@H](O[C@H]2[C@@H](O)C[C@H](O[C@H]3[C@@H](O)C[C@H](O[C@H]4CC[C@@]5(C)[C@H](CC[C@@H]6[C@@H]5C[C@@H](O)[C@]5(C)[C@@H](C7=CC(=O)OC7)CC[C@]65O)C4)O[C@@H]3C)O[C@@H]2C)C[C@H](O)[C@@H]1O [Digoxin, 12β-hydroxy-digitoxin], the “Increment of chromatin fragments triggered by serum withdrawal(%)” value (VSMC-E1A) was 18 ± 4 %.
